Test results reported in patent US9113629B2, “4-amino-6-(4-substituted-phenyl)-picolinates and 6-amino-2-(4-substituted-phenyl)-pyrimidine-4-carboxylates and their use as herbicides” (DOW AGROSCIENCES LLC, priority 2013, dated 2015).

How the values were obtained:
Assay in all cases: Post-emergent Test III, herbicidal activity in wheat and barley
Type in all cases: in vivo
[1] = test system: PAPRH: common poppy (Papaver rhoeas); conditions: for pest or weed control at 35 g/ha / pest or weed control at 70 g/ha / pest or weed control at 140 g/ha: Papaver rhoeas, post-emergence, 504 h, read-out: Visual Growth Reduction (%) 21 Days After Application PAPRH; for pest or weed control at 35 g/ha: 35 g ai/ha; for pest or weed control at 70 g/ha: 70 g ai/ha; for pest or weed control at 140 g/ha: 140 g ai/ha; for GR50 PAPRH / GR80 PAPRH: probit analysis, 21 days after application; for GR50 PAPRH: dose for growth reduction of 50 percent; for GR80 PAPRH: dose for growth reduction of 80 percent
Procedure, shortened: (§1)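 GR20, GR50, GR80 and GR90 come from probit analysis of visual injury scores (0 = none, 100 = complete kill) taken 21 d after treatment. Foliar application was by track sprayer delivering 187 L/ha at five rates, from high down to 1/16×, onto greenhouse plants at the 2–3 leaf stage, with solvent-blank controls.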

[2] = test system: VERPE: bird's-eye speedwell (veronica persica); conditions: for pest or weed control at 35 g/ha / pest or weed control at 70 g/ha / pest or weed control at 140 g/ha: Veronica persica, post-emergence, 504 h, read-out: Visual Growth Reduction (%) 21 Days After Application VERPE; for pest or weed control at 35 g/ha: 35 g ai/ha; for pest or weed control at 70 g/ha: 70 g ai/ha; for pest or weed control at 140 g/ha: 140 g ai/ha; for GR50 VERPE / GR80 VERPE: probit analysis, 21 days after application; for GR50 VERPE: dose for growth reduction of 50 percent; for GR80 VERPE: dose for growth reduction of 80 percent
Procedure, shortened: as §1

[3] = test system: ALOMY: black-grass (Alopecurus myosuroides); conditions: for pest or weed control at 35 g/ha / pest or weed control at 70 g/ha / pest or weed control at 140 g/ha: Alopecurus myosuroides, post-emergence, 504 h, read-out: Visual Growth Reduction (%) 21 Days After Application ALOMY; for pest or weed control at 35 g/ha: 35 g ai/ha; for pest or weed control at 70 g/ha: 70 g ai/ha; for pest or weed control at 140 g/ha: 140 g ai/ha; for GR50 ALOMY / GR80 ALOMY: probit analysis, 21 days after application; for GR50 ALOMY: dose for growth reduction of 50 percent; for GR80 ALOMY: dose for growth reduction of 80 percent
Procedure, shortened: as §1

[4] = test system: LAMSS; conditions: for pest or weed control at 35 g/ha / pest or weed control at 70 g/ha / pest or weed control at 140 g/ha: post-emergence, 504 h, read-out: Visual Growth Reduction (%) 21 Days After Application LAMSS; for pest or weed control at 35 g/ha: 35 g ai/ha; for pest or weed control at 70 g/ha: 70 g ai/ha; for pest or weed control at 140 g/ha: 140 g ai/ha; for GR50 LAMSS / GR80 LAMSS: probit analysis, 21 days after application; for GR50 LAMSS: dose for growth reduction of 50 percent; for GR80 LAMSS: dose for growth reduction of 80 percent
Procedure, shortened: as §1

[5] = test system: BROTE: downy brome (Bromus tectorum); conditions: for pest or weed control at 35 g/ha / pest or weed control at 70 g/ha / pest or weed control at 140 g/ha: Bromus tectorum, post-emergence, 504 h, read-out: Visual Growth Reduction (%) 21 Days After Application BROTE; for pest or weed control at 35 g/ha: 35 g ai/ha; for pest or weed control at 70 g/ha: 70 g ai/ha; for pest or weed control at 140 g/ha: 140 g ai/ha; for GR50 BROTE / GR80 BROTE: probit analysis, 21 days after application; for GR50 BROTE: dose for growth reduction of 50 percent; for GR80 BROTE: dose for growth reduction of 80 percent
Procedure, shortened: as §1

SMILES | pest or weed control at 35 g/ha [1] | pest or weed control at 70 g/ha [1] | pest or weed control at 140 g/ha [1] | GR50 PAPRH [1] | GR80 PAPRH [1] | pest or weed control at 35 g/ha [3] | pest or weed control at 70 g/ha [3] | pest or weed control at 140 g/ha [3] | GR50 ALOMY [3] | GR80 ALOMY [3] | pest or weed control at 35 g/ha [4] | pest or weed control at 70 g/ha [4] | pest or weed control at 140 g/ha [4] | GR50 LAMSS [4] | GR80 LAMSS [4] | pest or weed control at 35 g/ha [5] | pest or weed control at 70 g/ha [5] | pest or weed control at 140 g/ha [5] | GR50 BROTE [5] | GR80 BROTE [5] | other results
COC(=O)c1nc(-c2ccc(I)cc2)c(F)c(N)c1Cl [Compound 118, Methyl 4-amino-6-(4-iodophenyl)-3-chloro-5-fluoropicolinate] | 95 to 100% | 95 to 100% | 95 to 100% | 1 g ai/ha | 1 g ai/ha | 60 to 74% | 75 to 84% | 85 to 94% | 25 g ai/ha | 60 g ai/ha | 95 to 100% | 95 to 100% | 95 to 100% | 1 g ai/ha | 0 g ai/ha | 60 to 74% | 85 to 94% | 85 to 94% | 31 g ai/ha | 64 g ai/ha | pest or weed control at 35 g/ha [2]: 85 to 94%; pest or weed control at 70 g/ha [2]: 85 to 94%; pest or weed control at 140 g/ha [2]: 95 to 100%; GR50 VERPE [2]: 5 g ai/ha; GR80 VERPE [2]: 17 g ai/ha
C=Cc1c(C(=O)O)nc(-c2ccc(Cl)c(F)c2)c(F)c1N [Compound 214] | – | – | – | – | – | 30 to 44% | 45 to 59% | 30 to 44% | 95 g ai/ha | >140 g ai/ha | 75 to 84% | 75 to 84% | 85 to 94% | 12 g ai/ha | 33 g ai/ha | 0 to 29% | 0 to 29% | 0 to 29% | >140 g ai/ha | >140 g ai/ha | –
Nc1c(F)c(-c2ccc(Br)c(F)c2F)nc(C(=O)O)c1Cl [Compound 147] | – | – | – | – | – | 60 to 74% | 85 to 94% | 85 to 94% | 20 g ai/ha | 47 g ai/ha | 85 to 94% | 85 to 94% | 85 to 94% | 1 g ai/ha | 8 g ai/ha | 75 to 84% | 85 to 94% | 85 to 94% | 6 g ai/ha | 28 g ai/ha | –
COC(=O)c1nc(-c2ccc(Br)cc2)c(F)c(N)c1Cl [Compound 138, Methyl 4-amino-6-(4-bromophenyl)-3-chloro-5-fluoropicolinate] | 95 to 100% | 95 to 100% | 95 to 100% | 1 g ai/ha | 1 g ai/ha | 75 to 84% | 85 to 94% | 95 to 100% | 11 g ai/ha | 30 g ai/ha | 95 to 100% | 95 to 100% | 95 to 100% | 1 g ai/ha | 1 g ai/ha | 75 to 84% | 85 to 94% | 85 to 94% | 12 g ai/ha | 42 g ai/ha | pest or weed control at 35 g/ha [2]: 60 to 74%; pest or weed control at 70 g/ha [2]: 85 to 94%; pest or weed control at 140 g/ha [2]: 85 to 94%; GR50 VERPE [2]: 15 g ai/ha; GR80 VERPE [2]: 49 g ai/ha
